Active and inactive are the calls of the source. The rule behind the calls is not given here.
Tested on: not listed separately
Experiment: growth inhibition of replicating M. tuberculosis, dose response, counter-screen, log phase (AID 651851)
Conditions: Mycobacterium tuberculosis log-phase replicating growth inhibition

In the case of `Clc1ccc(-c2nnc(SCc3cn(Cc4ccccc4)nn3)o2)cc1`, the outcome is reported as “inactive”.
In the case of `Fc1ccc(Cn2cc(CSc3nnc(-c4ccc(Cl)cc4)o3)nn2)cc1`, the outcome is reported as “inactive”.

Tested on: Mycobacterium tuberculosis log-phase replicating growth inhibition
Experiment: as above
Conditions: not given

`O=S(Cc1cn(Cc2ccccc2)nn1)c1nnc(-c2ccc(Cl)cc2)o1` (stereo not drawn) and `O=S(Cc1cn(Cc2ccc(F)cc2)nn1)c1nnc(-c2ccc(Cl)cc2)o1` (stereo not drawn) are the same in IC90: 62 µM for the first, 62 µM for the second.

Compared with `c1ccc(CSc2nnc(-c3ccccc3)o2)cc1`, `O=S(Cc1ccccc1)c1nnc(-c2ccccc2)o1` (stereo not drawn) is 8.1-fold lower in IC90: 250 µM for the first, 31 µM for the second.

`O=S(=O)(Cc1cn(Cc2ccccc2)nn1)c1nnc(-c2ccc(Cl)cc2)o1` and `O=S(=O)(Cc1ccccc1)c1nnc(-c2ccccc2)o1` are the same in IC90: 62 µM for the first, 62 µM for the second.
